Measured values taken from article PMC8261488, “Contraceptive progestins with androgenic properties stimulate breast epithelial cell proliferation” (EMBO Molecular Medicine, 2021).

Columns and labels:
Format in all cases: cell-based
Rankl [1] = experiment: Rankl induction by R5020 or LNG in mouse mammary organoids co-treated with AR antagonists; conditions: antagonist 100 µM, 6 h, C57Bl6-derived organoids
Method: (§1) Enzalutamide (100 µM) abrogated Rankl induction by R5020 (P < 0.05) but had no effect on Wnt4 induction (Fig 1H).
(§2) Animal experiments were performed in accordance with protocol approved by the Service de la Consommation et des Affaires vétérinaires of Canton de Vaud (VD 1865.3, VD 1865.4). NOD. Cg‐Prkdc^scid Il2rg^tm1Wjl/SzJ mice (Charles River), BalbC, and C57Bl6 breeders were purchased from Jackson Laboratories. Mammary glands were isolated from 18‐ to 35‐week‐old mice, lymph nodes removed, minced with surgical blades, and digested in DMEM/F12, 1% penicillin/streptomycin B with collagenase A 0.25 mg/ml (Roche). Tissue was concomitantly stimulated with hormones for 1, 2, or 6 h and centrifuged at 652 g for 5 min. Fat was removed, and pellet containing organoids washed with phosphate‐buffered saline (PBS), resuspended 5 min in 3 ml red cell blood lysis buffer and washed twice with PBS.
(§3) Human breast microstructures and mouse organoids were homogenized in Trizol (Invitrogen). Aqueous phase containing RNA was chloroform extracted and processed with miRNeasy extraction kit (Qiagen). cDNA was synthesized using random p(dN)6 primers (Roche) and MMLV reverse transcriptase (Invitrogen). SYBR Green PCR Core Reagent System (Qiagen) was used for semi‐quantitative real time (RT‐PCR) using the following primers.

Wnt4 [2] = experiment: Wnt4 induction by R5020 or LNG in mouse mammary organoids co-treated with AR antagonists; conditions: antagonist 100 µM, 6 h, C57Bl6-derived organoids
Method: as §1, §2, §3

mouse mammary organoids = experiment: RNA sequencing of mouse mammary organoids stimulated ex vivo with R5020; conditions: R5020 20 nM, 6 h, n = 3
From the text: To test this hypothesis, we sought for biological readouts in physiologically relevant models. First, we recurred to using an ex vivo assay for the transcriptional response of the mouse mammary epithelium to hormones. We isolated mammary glands from several inbred adult female mice, treated them mechanically and enzymatically to generate epithelial‐enriched organoids, which remain hormone‐responsive (Ayyanan et al, 2011), and exposed them either to vehicle or to the stable progesterone mimic promegestone (R5020, 20 nM) for 6 h and performed RNA sequencing (Fig 1A). Three independent experiments were performed, and principal component analysis (PCA) grouped the samples according to treatment (Fig 1B). […] Together, these observations confirm that PR signaling is intact in this ex vivo model and that the functionally important factors, Rankl and Wnt4, are robust PR target genes in the mouse mammary epithelium.
as §2
(§4) RNAseq libraries were prepared using Truseq Stranded RNA producing single‐end reads of 100 bp and sequenced on Illumina Hiseq 2500 instrument. […]
(§5) Sequencing reads were quality controlled using FastQC (v0.11.8) (Wingett & Andrews, 2018). Mouse raw reads were aligned to the mouse genome (mm9) and human raw reads to the human genome (hg19) using TopHat (v2.0.11) (Kim et al, 2013). […]

Rankl [3] = experiment: Rankl transcript levels by RT-PCR in mouse mammary organoids stimulated ex vivo
Method: (§6) Next, we stimulated mouse mammary organoids derived from several BalbC females with R5020 or different progestins (Fig 1A). […] No significant change in Rankl and Wnt4 transcript levels was detected during the first 2 h (Appendix Fig S1D). By 6 h of R5020 stimulation, Rankl and Wnt4 transcript levels increased 22.4 and 5.8‐fold over the vehicle‐treated control, respectively.
as §2, with “Tissue was concomitantly stimulated with hormones for 1, 2, or 6 h and centrifuged at 652 g for 5 min.” left out
as §3

Wnt4 [4] = experiment: Wnt4 transcript levels by RT-PCR in mouse mammary organoids stimulated ex vivo
Method: as §6
as §2, with “Tissue was concomitantly stimulated with hormones for 1, 2, or 6 h and centrifuged at 652 g for 5 min.” left out
as §3

[5] = system: human breast tissue microstructures (EpCAM+ cells); experiment: RNA sequencing of EpCAM+ cells from human breast tissue microstructures stimulated ex vivo; conditions: 14–18 h exposure, n = 3
From the text: Having ascertained with mammary tissue from inbred mice that androgenic and anti‐androgenic progestins have different effects on the expression of important PR target genes, we set out to assess the transcriptional response to PR signaling in the human breast epithelium. In view of our goal to perform in vivo experiments with the natural ligand progesterone, we compared the effects of progesterone to those of its stable analog R5020 which is commonly used for in vitro experiments on breast epithelial cells. For this, we used an ex vivo approach with human breast tissue similar to the mouse organoid technique used above that maintains hormone responsiveness (Tanos et al, 2013; Sflomos et al, 2015). In brief, 3 fresh mammoplasty tissue from women with follicular phase progesterone levels were cut into 1 mm^3 pieces and aliquoted for digestion with collagenase and concomitant exposure to either vehicle, R5020, or progesterone for 14–18 h. Tissue microstructures that contain epithelial cells, immune cells, and fibroblasts in varying proportions were recovered. To reduce interpatient variation as far as it relates to different ratios of various cell types, at the end of the treatment, the tissue microstructures were dissociated to single cells and enriched for epithelial cells by FACS sorting with antibodies against the epithelial cell surface marker EpCAM (Fig 2A). The EpCAM^+ cells were processed for RNA sequencing. […] Progesterone affected expression levels of 65 genes, whereas R5020 affected 112 genes, including RANKL (adj.P < 0.05) (Appendix Fig S2A). More than 90% of the progesterone‐induced gene expression changes were induced by R5020 (Fig 2C). […] R5020 induced higher‐fold changes as indicated by the estimated slope of the curve being > 1 (P < 0.0001). […]
All experiments conformed to the principles set out in the WMA Declaration of Helsinki and the Department of Health and Human Services Belmont Report. […] Human tissue samples were mechanically and enzymatically dissociated, single cells were prepared, counted, and spin infected using Lenti‐ONE CMV‐GFP(2A)Luc2 WPRE VSV, V621004001, or pR980 Luc2GFP (GEGTECH) at a multiplicity of infection of 1 at 2.500 rpm for 3 h at room temperature in 500 μl of serum‐free medium. […]
as §4, §5

[6] = BalbC females, 6 h of stimulation
[7] = BalbC-derived organoids, 24 h of stimulation

`CC(O)(CS(=O)(=O)c1ccc(F)cc1)C(=O)Nc1ccc(C#N)c(C(F)(F)F)c1` (stereo not shown) [bicalutamide] was tested, and the “effect of AR antagonist on Rankl induction by R5020” value (Rankl [1]) was “abrogated” and the “effect of AR antagonist on Wnt4 induction by R5020” value (Wnt4 [2]) was “no significant effect”.

`CCC(=O)[C@@]1(C)CC[C@H]2[C@@H]3CCC4=CC(=O)CCC4=C3CC[C@@]21C` [R5020, promegestone] was tested, and the “Pgr transcripts, down-modulation (RNA sequencing)” value (mouse mammary organoids) was 0.2 fold, the “Rankl transcripts, induction over control samples (RNA sequencing)” value (mouse mammary organoids) was 10.07 fold and the “Wnt4 induction (RNA sequencing)” value (mouse mammary organoids) was 3.1 fold. For the same compound, the “Rankl transcript levels over vehicle-treated control” value (Rankl [3]; [6]) was 22.4 fold, the Rankl transcript induction (Rankl [3]; [7]) was 83 fold and the Rankl transcript induction (Rankl [3]; C57Bl/6 mice, 6 h, 20 nM) was 10.9 fold. The “Wnt4 transcript levels over vehicle-treated control” value (Wnt4 [4]; [6]) was 5.8 fold, the Wnt4 transcript induction (Wnt4 [4]; [7]) was 26 fold and the Wnt4 transcript induction (Wnt4 [4]; C57Bl/6 mice, 6 h, 20 nM) was 4.2 fold. For the same compound, the “RANKL expression (variant stabilized gene expression values)” value [5] was “increased expression” and the “WNT4 expression (variant stabilized gene expression values)” value [5] was “increased expression”.
